Experimental data taken from patent US12071648B2, “Ex vivo model of inflamed human skin and uses thereof for screening anti-inflammatory compounds” (GENOSKIN, priority 2017, dated 2024).

Key:
Type in all cases: cell-based, human
[1] = tested on: ex vivo model of inflamed skin (InflammaSkin); test: Histological analysis of the InflammaSkin model after topical treatment
Description: (§1) Using a clamp, the skin biopsy is held flat, with the dermis on top. A needle with no dead volume is inserted into the biopsy from the side of the dermis using a 701N or 705N Hamilton syringe (for 8 mm or 15 mm diameter biopsies, respectively). 10 μL or 35 μL of the activation solution (50 ng/μL anti-CD3 antibody, 50 ng/μL anti-CD28 antibody, and 10 ng/mL IL-2) for biopsies of 8 or 15 mm diameter, respectively, are injected from the side of the biopsy to avoid damage to the epidermis.
(§2) In WILLIAM'S E synthetic culture medium, the following supplements are added: 10 ng/mL IL-1β, 50 ng/mL IL-23, and 10 ng/mL TGFbeta. The culture is carried out for 7 days in a CO2 incubator at 37° C. The culture medium containing the supplements is changed daily.
The skin biopsy treated according to steps a) and b) of the method of the invention is dehydrated by an alcohol bath, and then passed through a xylene bath. A first bath in paraffin allows to replace the water previously contained in the skin explant by paraffin.
Serial sections of a thickness varying from 4 to 5 μm are then made along the entire length of the paraffin block containing the sample.
(§3) In order to test the relevance of the model of inflamed skin obtained by the method of the invention, compounds known for their anti-inflammatory effect were tested. These are betamethasone di-propionate and the PDE4 inhibitor. […]

IL-17A = IL-17A secretion by the InflammaSkin ex vivo model of inflamed skin, ELISA of culture media
Description: as §1, §2
(§4) The cytokines IL-17A, IL-22, and IFNγ produced by the model were analyzed in the culture media by an ELISA assay using a specific detection kit from Meso Scale Discovery (U-PLEX TH17 Combo 2 Human Reference K15076K) and using a multiplex assay platform (MESO QuickPlex SQ 120).
as §3

IFNγ = IFNγ secretion by the InflammaSkin ex vivo model of inflamed skin, ELISA of culture media
Description: as §1, §2, §4, §3

TNFα = TNFα secretion by the InflammaSkin ex vivo model of inflamed skin
IL-22 [2] = test: IL-22 secretion by the InflammaSkin ex vivo model of inflamed skin, ELISA of culture media
Description: as §1, §2, §4, §3

[3] = tested on: ex vivo model of inflamed skin (Hypo-InflammaSkin); test: Histology analysis (hematoxylin and eosin) of the Hypo-InflammaSkin model after subcutaneous injection
Description: In a second embodiment, the hypodermis is preserved. The biopsies (epidermis, dermis, and hypodermis), the thickness of which is about 1 cm, are then cut out using a metal punch. This second embodiment is for testing anti-inflammatory compounds by subcutaneous injection.
(§5) In order to test the relevance of the model of inflamed skin obtained by the method of the invention (Hypo-InflammaSkin®), an antibody known for its anti-inflammatory effect was tested. This is the adalimumab anti-TNFα antibody. Biopsies of inflamed skin (Hypo-InflammaSkin®−I) with a thickness of 1 cm were obtained by the method of the invention. A subcutaneous injection (namely into the […]) of 50 nM adalimumab was performed at TO (prophylactic treatment, Hypo-InflammaSkin®−I+anti-TNFα−P) or after 3 days of ex vivo culture of the inflamed biopsy (therapeutic treatment, Hypo-InflammaSkin®−I+anti-TNFα−T). After 7 days of ex vivo culture, the culture media are taken, and skin biopsies are fixed in a 10% formalin solution and then embedded in paraffin blocks. Serial sections of a constant thickness of 5 μm of the biopsies are made. The morphological appearance of the skin biopsies is studied under optical microscopy using hematoxylin and eosin staining. The presence of psoriasin (S110A7) is identified by fluorescence microscopy (Leica DM 5000 microscope) using an anti-S100A7 antibody coupled to a fluorochrome. […]

psoriasin (S100A7) = test: Psoriasin detection by fluorescence microscopy in the Hypo-InflammaSkin model; settings: inflamed biopsy treated by subcutaneous injection of 50 nM, 7 days of ex vivo culture
Description: In order to test the relevance of the model of inflamed skin obtained by the method of the invention (Hypo-InflammaSkin®), an antibody known for its anti-inflammatory effect was tested. This is the adalimumab anti-TNFα antibody. Biopsies of inflamed skin (Hypo-InflammaSkin®−I) with a thickness of 1 cm were obtained by the method of the invention. A subcutaneous injection (namely into the […]) of 50 nM adalimumab was performed at TO (prophylactic treatment, Hypo-InflammaSkin®−I+anti-TNFα−P) or after 3 days of ex vivo culture of the inflamed biopsy (therapeutic treatment, Hypo-InflammaSkin®−I+anti-TNFα−T). After 7 days of ex vivo culture, the culture media are taken, and skin biopsies are fixed in a 10% formalin solution and then embedded in paraffin blocks. Serial sections of a constant thickness of 5 μm of the biopsies are made. The morphological appearance of the skin biopsies is studied under optical microscopy using hematoxylin and eosin staining. The presence of psoriasin (S110A7) is identified by fluorescence microscopy (Leica DM 5000 microscope) using an anti-S100A7 antibody coupled to a fluorochrome. The cell nuclei are marked with DAPI. Biopsies of non-inflamed skin (HypoSkin®−biopsies including the epidermis, dermis, and hypodermis) are used for control.

IL-22 [4] = test: IL-22 secretion by the Hypo-InflammaSkin model
Description: as §4, §5

Molecule | histological abnormalities in the epidermis ([1]; after 7 days of culture (FIG. 5 legend)) | integrity and structure of the skin, particularly the epidermis, and viability of epidermal cells ([1]; prophylactic treatment, compared to placebo controls (FIG. 5)) | IL-17A secretion (IL-17A; prophylactic treatment, topical 10 μL daily until 7th day of culture, compared to placebo control (FIG. 6A)) | IL-17A secretion (IL-17A; therapeutic treatment, topical from 3 days of culture, daily until 7th day (FIG. 6B)) | IFNγ secretion (IFNγ; prophylactic treatment, topical 10 μL daily until 7th day of culture, compared to placebo control (FIG. 8A)) | IFNγ secretion (IFNγ; therapeutic treatment, topical from 3 days of culture, daily until 7th day (FIG. 8B)) | TNFα secretion (TNFα; prophylactic treatment, topical 10 μL daily until 7th day of culture, compared to placebo control (FIG. 9A)) | TNFα secretion (TNFα; therapeutic treatment, topical from 3 days of culture, daily until 7th day (FIG. 9B)) | IL-22 secretion (IL-22 [2]; prophylactic treatment, topical 10 μL daily until 7th day of culture, compared to placebo control (FIG. 7A)) | IL-22 secretion (IL-22 [2]; therapeutic treatment, topical from 3 days of culture, daily until 7th day (FIG. 7B)) | integrity and structure of the skin, more particularly the epidermis, and epidermal cell viability ([3]; prophylactic treatment, subcutaneous injection of 50 nM at T0, 7 days of ex vivo culture (FIG. 13)) | integrity and structure of the skin, more particularly the epidermis, and epidermal cell viability ([3]; therapeutic treatment, subcutaneous injection of 50 nM after 3 days of culture, 7 days of ex vivo culture (FIG. 13)) | presence of psoriasin (psoriasin (S100A7)) | IL-22 secretion (IL-22 [4]; prophylactic treatment, subcutaneous injection of 50 nM at T0, compared to untreated inflamed biopsy (FIG. 14)) | IL-22 secretion (IL-22 [4]; therapeutic treatment, subcutaneous injection of 50 nM after 3 days of culture, compared to untreated inflamed biopsy (FIG. 14))
CCC(=O)OCC(=O)[C@@]1(OC(=O)CC)[C@@H](C)C[C@H]2[C@@H]3CCC4=CC(=O)C=C[C@]4(C)[C@@]3(F)[C@@H](O)C[C@@]21C [betamethasone di-propionate] | total absence of histological abnormalities in the epidermis | preserved | strongly inhibited | inhibits IL-17A secretion | strongly inhibited | inhibits IFNγ secretion | strongly inhibited | strongly inhibited | strongly inhibited | inhibits IL-22 secretion |  |  |  |  | 
adalimumab |  |  |  |  |  |  |  |  |  |  | preserved | preserved | almost undetectable | strongly inhibited | strongly inhibited
